Measured values as given in ChEMBL document CHEMBL4483862, “Open-source discovery of chemical leads for next-generation chemoprotective antimalarials” (2018).

Test system: Plasmodium berghei
Experiment: Luciferase/luciferin-expressing antifolate-resistant parasites were used to infect a culture of HepG2 cells that were pre-incubated with compounds. Infected hepatocytes emit light due to the luciferase reaction. Assay results are presented as the percent inhibition of light emission compared to control. […]
Type: functional
Details: sporozoite; for IC90: read-out: LUCIFERASE INFECTION ASSAY - IC90
[1] = read-out: LUCIFERASE INFECTION ASSAY - IC50

SMILES | IC50 [1] [µM] | IC90 [µM] | further results
O=C(CNc1ccccc1-c1ccccc1)NCC(F)(F)F | > 10 | > 10 | 
Cc1noc(-c2ccc(C(F)(F)F)cc2)c1NC(=O)Nc1cc(Cl)cc(Cl)c1 | 0.395 | 1.05 | 
O=C(CSCc1nc2ccccc2[nH]1)Nc1nc(-c2ccc(NC(=O)c3ccccc3)cc2)cs1 |  | > 10 | IC50 (PBLUC_HILL_SLOPE 14.9, PBLUC_R_SQUARED 0.81, read-out: LUCIFERASE INFECTION ASSAY - IC50): 9.28 µM
O=C(Nc1ccc(C(=O)N(CCO)Cc2cccc(OCc3ccccc3Cl)c2)cc1)C1CC1 |  | > 10 | IC50 (PBLUC_HILL_SLOPE 3.35, PBLUC_R_SQUARED 0.615, read-out: LUCIFERASE INFECTION ASSAY - IC50): 6.85 µM
Cn1c(Cc2ccccc2)ns/c1=N\C(=Nc1ccccc1)c1ccccc1 | > 10 | > 10 | 
CC(=O)c1cccc(-c2cnc3c(Nc4cccc(OC(F)(F)C(F)F)c4)nccn23)c1 |  | 6 | IC50 (HEPG2TOX_HILL_SLOPE 2.66, HEPG2TOX_R_SQUARED 0.947, PBLUC_HILL_SLOPE 1.76, PBLUC_R_SQUARED 0.616, read-out: LUCIFERASE INFECTION ASSAY - IC50): 1.72 µM
CCc1ccccc1N(CC(=O)NCC(C)C)S(=O)(=O)c1ccc(C)cc1 | > 8.49 | > 8.49 | 
Cc1c(C(=O)Nc2ccc(Oc3ccccc3)cc2)cnn1C |  | > 10 | IC50 (HEPG2TOX_HILL_SLOPE 1.34, HEPG2TOX_R_SQUARED 0.933, PBLUC_HILL_SLOPE 3.41, PBLUC_R_SQUARED 0.294, read-out: LUCIFERASE INFECTION ASSAY - IC50): 7.03 µM
Cc1ccc2nc(NC(=O)c3ccc(Cl)cc3Cl)c(C(=O)NC3CCCC3)n2c1 |  | 1.13 | IC50 (FFLUC_HILL_SLOPE 11.5, FFLUC_R_SQUARED 0.0941, HEPG2TOX_HILL_SLOPE 0.896, HEPG2TOX_R_SQUARED 0.951, PBLUC_HILL_SLOPE 3.11, PBLUC_R_SQUARED 0.82, read-out: LUCIFERASE INFECTION ASSAY - IC50): 0.559 µM
COc1ccc(OC)c(S(=O)(=O)Nc2ccc(S(=O)(=O)Nc3cc(C(F)(F)F)cc(C(F)(F)F)c3)cc2)c1 | > 5.65 | > 5.65 | 
CC(C)(C)c1ccc(OCc2nc(=O)cc(Nc3ccccc3Cl)[nH]2)cc1 |  | > 8.6 | IC50 (FFLUC_HILL_SLOPE 11.4, FFLUC_R_SQUARED 0.169, HEPG2TOX_HILL_SLOPE 0.949, HEPG2TOX_R_SQUARED 0.863, read-out: LUCIFERASE INFECTION ASSAY - IC50): > 8.6 µM
O=C(CNc1cccc(C(F)(F)F)c1)N/N=C/c1c2ccccc2c(Cl)c2ccccc12 |  | > 10 | IC50 (HEPG2TOX_HILL_SLOPE 7.3, HEPG2TOX_R_SQUARED 0.234, PBLUC_HILL_SLOPE 3.59, PBLUC_R_SQUARED 0.507, read-out: LUCIFERASE INFECTION ASSAY - IC50): 6.19 µM
O=C(c1cc2c(=O)n3ccccc3nc2s1)N(c1ccccn1)C1CCCCC1 |  | > 10 | IC50 (PBLUC_HILL_SLOPE 9.6, PBLUC_R_SQUARED 0.179, read-out: LUCIFERASE INFECTION ASSAY - IC50): 9.45 µM
CC(C)(C)c1ccc(-c2nnc(SCc3ccc([N+](=O)[O-])cc3)n2-c2cccc(C(F)(F)F)c2)cc1 |  | > 6.44 | IC50 (FFLUC_HILL_SLOPE 12, FFLUC_R_SQUARED 0.571, HEPG2TOX_HILL_SLOPE 0.228, HEPG2TOX_R_SQUARED 0.238, read-out: LUCIFERASE INFECTION ASSAY - IC50): > 6.44 µM
CCN(c1ccccc1)S(=O)(=O)c1ccc(C(=O)N2CCN(c3cccc(C)c3C)CC2)cc1 | 4.15 | 5.07 | 
O=C(Nc1cccc(S(=O)(=O)NC2CC2)c1)c1ccccc1SCc1ccco1 |  | 4.79 | IC50 (FFLUC_HILL_SLOPE 1.74, FFLUC_R_SQUARED 0.575, HEPG2TOX_HILL_SLOPE 9.06, HEPG2TOX_R_SQUARED 0.765, PBLUC_HILL_SLOPE 112, PBLUC_R_SQUARED 0.186, read-out: LUCIFERASE INFECTION ASSAY - IC50): 4.7 µM
O=C(Nc1cccc(Cl)c1)Nc1ccccc1N1CCCC1 |  | > 10.4 | IC50 (HEPG2TOX_HILL_SLOPE 6.22, HEPG2TOX_R_SQUARED 0.342, PBLUC_HILL_SLOPE 2.56, PBLUC_R_SQUARED 0.455, read-out: LUCIFERASE INFECTION ASSAY - IC50): 6.9 µM
Cc1ccc(C(C)C)c(OCC(=O)N2CCC(c3nc4ccccc4[nH]3)CC2)c1 |  | 7.21 | IC50 (PBLUC_HILL_SLOPE 4.62, PBLUC_R_SQUARED 0.766, read-out: LUCIFERASE INFECTION ASSAY - IC50): 4.48 µM
O=c1nc(CCc2ccc3c(c2)OCCO3)[nH]c2ccccc12 |  | 3.7 | IC50 (PBLUC_HILL_SLOPE 12.5, PBLUC_R_SQUARED 0.668, read-out: LUCIFERASE INFECTION ASSAY - IC50): 3.11 µM
Nn1cc(C(F)(F)F)cc(Cl)c1=[N+]1CCNCC1 | > 7.29 | > 7.29 | 
Cc1c(C(=O)Nc2ncc(Cc3ccccc3)s2)[nH]c2c1C(=O)CC(C)(C)C2 | > 10 | > 10 | 
CN(C)CCCOc1ccc(-c2nnc3ccc(-c4cccc(OC(F)(F)F)c4)cn23)cc1 |  | > 10 | IC50 (PBLUC_HILL_SLOPE 3.54, PBLUC_R_SQUARED 0.437, read-out: LUCIFERASE INFECTION ASSAY - IC50): 7.74 µM

SMILES | IC50 [1] [µM] | IC90 [µM] | further results
CC(NC(=O)c1nc(-c2ccccc2)n(-c2ccccc2)n1)C12CC3CC(CC(C3)C1)C2 (stereo unspecified) |  | 5.28 | IC50 (HEPG2TOX_HILL_SLOPE 3.46, HEPG2TOX_R_SQUARED 0.871, PBLUC_HILL_SLOPE 90.3, PBLUC_R_SQUARED 0.516, read-out: LUCIFERASE INFECTION ASSAY - IC50): 5.15 µM
COc1cc(C#N)ccc1Oc1ccnc2cc(Cl)ccc12 |  | > 10 | IC50 (HEPG2TOX_HILL_SLOPE 2.16, HEPG2TOX_R_SQUARED 0.625, PBLUC_HILL_SLOPE 9.16, PBLUC_R_SQUARED 0.449, read-out: LUCIFERASE INFECTION ASSAY - IC50): 8.55 µM
N#C/C(=C\C=C\c1ccccc1)c1cccc(Cl)c1 | > 12.4 | > 12.4 | 
COc1cccc(CN2CCN3C(C(=O)Nc4ccc(F)c(Cl)c4)=COC3=NC2=O)c1 |  | > 10 | IC50 (HEPG2TOX_HILL_SLOPE 1.28, HEPG2TOX_R_SQUARED 0.654, PBLUC_HILL_SLOPE 1.61, PBLUC_R_SQUARED 0.572, read-out: LUCIFERASE INFECTION ASSAY - IC50): 3.18 µM
Cc1ccccc1-c1cnc2cnc(-c3ccc(CNc4ccccc4)cc3)cn12 |  | > 8.45 | IC50 (PBLUC_HILL_SLOPE 14.2, PBLUC_R_SQUARED 0.506, read-out: LUCIFERASE INFECTION ASSAY - IC50): 8.05 µM
CC(C)(C)c1cc(C(=O)/C(C#N)=N/Nc2ccc(Cl)cc2)no1 |  | 4.32 | IC50 (HEPG2TOX_HILL_SLOPE 1.26, HEPG2TOX_R_SQUARED 0.947, PBLUC_HILL_SLOPE 9.91, PBLUC_R_SQUARED 0.6, read-out: LUCIFERASE INFECTION ASSAY - IC50): 3.46 µM
Cc1cc(C)c(NC(=O)CNC(=O)c2ccc(-c3ccccc3)cc2)c(C)c1 |  | > 10 | IC50 (PBLUC_HILL_SLOPE 11.6, PBLUC_R_SQUARED 0.0183, read-out: LUCIFERASE INFECTION ASSAY - IC50): > 10 µM
Cc1cc(C=C2Sc3ccccc3N2C)cc(C)[n+]1C(C)C1CC2CCC1C2 (stereo unspecified) |  | 0.589 | IC50 (HEPG2TOX_HILL_SLOPE 0.905, HEPG2TOX_R_SQUARED 0.888, PBLUC_HILL_SLOPE 1.95, PBLUC_R_SQUARED 0.822, read-out: LUCIFERASE INFECTION ASSAY - IC50): 0.19 µM
CN(Cc1nc2ccccc2s1)C(=O)c1cccc(C#N)c1 | > 10 | > 10 | 
COc1cc(-c2cnc3cnc(-c4ccc(C(=O)NCCN(C)C)cc4)cn23)ccc1O | > 7.65 | > 7.65 | 
CN(C)C(=O)CN(C)S(=O)(=O)/C=C/c1ccccc1 | > 10 | > 10 | 
Clc1ccc(CSCc2cc(SCc3ccc(Cl)cc3Cl)nc(-c3ccccn3)n2)cc1 |  | 0.781 | IC50 (HEPG2TOX_HILL_SLOPE 1.3, HEPG2TOX_R_SQUARED 0.951, PBLUC_HILL_SLOPE 11.6, PBLUC_R_SQUARED 0.668, read-out: LUCIFERASE INFECTION ASSAY - IC50): 0.646 µM
Cc1cc(NCc2c(F)cccc2Cl)ccc1N1CCCC1=O |  | > 10 | IC50 (PBLUC_HILL_SLOPE 14.5, PBLUC_R_SQUARED 0.0625, read-out: LUCIFERASE INFECTION ASSAY - IC50): 9.88 µM
CC(C)N1CCC(C)(C(=O)Nc2ccc3c(c2)C(=O)N(C)C3=O)C1 (stereo unspecified) | > 10 | > 10 | 
CN(C)CCN1CCN(c2cccc(-c3ccc(-c4ccccc4)cc3)n2)CC1 | 5.35 | > 8.54 | 
COc1ccc(C(c2cc(Cl)c3cccnc3c2O)N2CCN(C)CC2)cc1 (stereo unspecified) |  | 3.38 | IC50 (FFLUC_HILL_SLOPE 2.4, FFLUC_R_SQUARED 0.862, HEPG2TOX_HILL_SLOPE 1.1, HEPG2TOX_R_SQUARED 0.743, PBLUC_HILL_SLOPE 15.9, PBLUC_R_SQUARED 0.801, read-out: LUCIFERASE INFECTION ASSAY - IC50): 2.95 µM
CC(C)CC(N)c1csc(NC(=O)Nc2ccc(F)c(Cl)c2)n1 (stereo unspecified) | > 9.25 | > 9.25 | 
O=C(c1ccccc1)N1[C@@H]2CC[C@@H](C2)[C@H]1c1nc2cccc(OCc3ccccc3)c2[nH]1 |  | > 10 | IC50 (PBLUC_HILL_SLOPE 2.24, PBLUC_R_SQUARED 0.373, read-out: LUCIFERASE INFECTION ASSAY - IC50): > 10 µM
O=C(c1csc2c1CCCC2)N1CCc2c(c(C(=O)N3CCCC3)nn2Cc2ccncc2)C1 | > 6.94 | > 6.94 | 
CC(=O)Nc1nc(C(=O)Nc2ccc(Nc3ccccc3)cc2)cs1 |  | > 10 | IC50 (HEPG2TOX_HILL_SLOPE 2.43, HEPG2TOX_R_SQUARED 0.519, PBLUC_HILL_SLOPE 2.7, PBLUC_R_SQUARED 0.347, read-out: LUCIFERASE INFECTION ASSAY - IC50): 4.68 µM
O=C(c1ccc2[nH]c3c(c2c1)CCCC3)N1CCN(Cc2nc(-c3cccs3)no2)CC1 | > 10 | > 10 | 
